Test results reported in patent publication US20260356830A1, “COMPOUNDS FOR MODULATING RET PROTEIN” (Bristol-Myers Squibb Company, priority 2022, published 2026).

Biological target: T1, CCDC6-RET (Homo sapiens, UniProt P07949+Q16204+Q96SW2)
T1 construct: CCDC6 (natural N-terminal fusion partner, UniProt Q16204); endogenous in cells; host or cells: TPC-1 (parental, papillary thyroid carcinoma)
Test: Cellular RET degradation, AlphaLISA, TPC-1 cell line
Assay type: cell-based
Conditions: for Dmax: TPC1, human, 24 h, read-out: Cell Density TPC-1/CCDC6-RET Ymax %; for DC50: read-out: Cell Density TPC-1/CCDC6-RET DC50, half-maximal degradation concentration, TPC-1 (CCDC6-RET), 24 hrs
Experimental: Cellular RET degradation compound potency was determined using the bead-based luminescent amplification assay-AlphaLISA Surefire Ultra Detection Kit (Perkin-Elmer). The CCDC6-RET fusion expressing papillary thyroid carcinoma (TPC-1) cell line was selected for screening of potential degraders: Parental (TPC-1/CCDC6-RET). Cells were plated in 384 well culture plates (Greiner Bio-One) at 10,000 cells/well in 50 ul/well DMEM (Fisher Scientific) with 2% FBS serum (Gibco). […] Low normalization wells were media only and high normalization wells were cells treated with DMSO only. Treated cell plates were placed in an incubator at 37 °C and 5% CO2 for 24 hrs. At 24 hrs, cell media was removed by a FELIX automated liquid hander (Analytik Jena) and 25 ul of cell lysis buffer (provided in AlphaLisa kit) was added to each well. […] cell lysate were transferred into a 384-well microplate (Perkin Elmer) before addition of 2.5 ul AlphaLISA Acceptor Bead mix. The plates were sealed and kept at room temperature for 1 hr before addition of donor bead mixture. Donor bead addition was performed in the dark and incubated for >1 hr before AlphaLISA luminescence was measured on an Envision plate reader with an Alphascreen aperture at RT (excitation 680 nm, emission 615 nm). RET protein abundance (and therefore degradation) directly corresponds to luminescence intensity.
Intensities were normalized relative to the average values from 16 wells containing media alone (blank-low) and 16 wells containing cells +DMSO (high). % Degradation for each well was determined using the standard equation, where
DC50 (IC50) values for each compound tested are calculated by analyzing plots of % degradation versus compound concentration, and fitting to the standard 4-parameter logistic curve where,
DC50 values are calculated according to the relationship,
Compound replicates were performed in independent assays. Maximum degradation (YMax) was defined as the maximal % degradation value from the 4-parameter logistic equation, as previously described.

T1 sequence (Q16204+P07949 fused): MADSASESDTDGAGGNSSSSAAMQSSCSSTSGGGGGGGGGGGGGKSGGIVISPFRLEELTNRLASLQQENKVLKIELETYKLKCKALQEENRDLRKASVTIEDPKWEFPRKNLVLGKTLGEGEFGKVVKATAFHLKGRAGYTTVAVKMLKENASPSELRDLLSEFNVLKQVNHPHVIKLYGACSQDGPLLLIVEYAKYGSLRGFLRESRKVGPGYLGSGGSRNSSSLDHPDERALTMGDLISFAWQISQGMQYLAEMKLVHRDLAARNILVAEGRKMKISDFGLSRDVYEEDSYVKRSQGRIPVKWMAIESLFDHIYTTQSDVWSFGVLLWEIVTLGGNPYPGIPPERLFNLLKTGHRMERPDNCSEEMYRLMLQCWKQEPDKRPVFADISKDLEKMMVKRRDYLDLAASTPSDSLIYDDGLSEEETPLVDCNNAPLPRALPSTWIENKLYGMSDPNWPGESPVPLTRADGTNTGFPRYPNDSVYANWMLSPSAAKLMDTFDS
T1 sequence (Q96SW2 whole entry, the tested form may be a part): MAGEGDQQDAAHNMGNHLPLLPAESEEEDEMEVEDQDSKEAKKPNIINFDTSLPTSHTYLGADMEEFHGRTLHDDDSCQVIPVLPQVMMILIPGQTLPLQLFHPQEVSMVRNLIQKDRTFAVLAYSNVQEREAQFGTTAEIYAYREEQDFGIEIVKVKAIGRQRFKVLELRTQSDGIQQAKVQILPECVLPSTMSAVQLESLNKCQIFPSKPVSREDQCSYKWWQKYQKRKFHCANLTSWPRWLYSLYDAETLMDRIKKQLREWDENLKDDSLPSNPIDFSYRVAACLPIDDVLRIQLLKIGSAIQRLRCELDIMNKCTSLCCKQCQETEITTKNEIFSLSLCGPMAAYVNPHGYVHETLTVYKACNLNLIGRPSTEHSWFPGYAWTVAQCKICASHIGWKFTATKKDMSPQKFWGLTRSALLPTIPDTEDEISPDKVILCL
T1 sequence (Q16531 whole entry partner, the tested form may be a part): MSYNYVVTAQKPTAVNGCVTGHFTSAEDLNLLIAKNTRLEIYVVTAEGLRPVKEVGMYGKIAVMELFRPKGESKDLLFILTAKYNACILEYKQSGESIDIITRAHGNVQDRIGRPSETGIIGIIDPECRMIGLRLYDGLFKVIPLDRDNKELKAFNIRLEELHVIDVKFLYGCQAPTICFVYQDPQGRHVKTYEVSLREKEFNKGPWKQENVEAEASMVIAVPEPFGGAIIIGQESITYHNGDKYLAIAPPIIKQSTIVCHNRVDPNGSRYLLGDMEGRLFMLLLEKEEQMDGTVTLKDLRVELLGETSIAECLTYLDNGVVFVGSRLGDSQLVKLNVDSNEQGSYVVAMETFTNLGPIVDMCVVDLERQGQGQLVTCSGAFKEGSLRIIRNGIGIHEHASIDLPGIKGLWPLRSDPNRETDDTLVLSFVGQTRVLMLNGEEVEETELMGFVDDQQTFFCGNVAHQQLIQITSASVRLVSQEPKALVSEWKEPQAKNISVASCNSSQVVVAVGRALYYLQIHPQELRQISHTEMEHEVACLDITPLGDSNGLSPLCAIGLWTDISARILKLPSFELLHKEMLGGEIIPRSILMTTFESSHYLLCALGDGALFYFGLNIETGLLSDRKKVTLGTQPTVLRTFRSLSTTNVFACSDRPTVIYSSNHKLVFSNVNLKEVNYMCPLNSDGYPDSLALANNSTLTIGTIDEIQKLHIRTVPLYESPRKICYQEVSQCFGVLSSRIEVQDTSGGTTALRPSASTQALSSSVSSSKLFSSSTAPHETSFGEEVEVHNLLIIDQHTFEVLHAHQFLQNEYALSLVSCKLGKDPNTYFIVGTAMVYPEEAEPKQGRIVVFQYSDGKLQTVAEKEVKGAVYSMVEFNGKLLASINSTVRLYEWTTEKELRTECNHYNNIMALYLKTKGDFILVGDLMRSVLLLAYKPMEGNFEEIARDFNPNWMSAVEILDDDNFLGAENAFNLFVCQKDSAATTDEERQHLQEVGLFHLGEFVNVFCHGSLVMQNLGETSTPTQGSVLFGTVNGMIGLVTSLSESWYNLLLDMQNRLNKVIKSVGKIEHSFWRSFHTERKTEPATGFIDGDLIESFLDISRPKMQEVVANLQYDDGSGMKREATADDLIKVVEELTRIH

SMILES | Dmax [%] | DC50 [nM]
CCOc1cc(-c2ccc(N3CCC(CN4CCN(C(=O)CCCCCCN5CCN(c6ccc7c(c6)CN(C6CCC(=O)NC6=O)C7=O)CC5)CC4)(NC(=O)c4ncccc4F)CC3)nc2)c2c(C#N)cnn2c1 (centres unmarked) [Example 2, N-(1-(5-(3-cyano-6-ethoxypyrazolo[1,5-a]pyridin-4-yl)pyridin-2-yl)-4-((4-(7-(4-(2-(2,6-dioxopiperidin-3-yl)-1-oxoisoindolin-5-yl)piperazin-1-yl)heptanoyl)piperazin-1-yl)methyl)piperidin-4-yl)-3-fluoropicolinamide] | 60 to 90 | 2 to 10
CCOc1cc(-c2ccc(N3CCC(CN4CCN(C(=O)CCCCCCN5CCN(c6ccc7c(c6)CN(C6CCC(=O)NC6=O)C7=O)CC5)CC4)(NC(=O)CC(C)C)CC3)nc2)c2c(C#N)cnn2c1 (centres unmarked) [Example 3, N-(1-(5-(3-cyano-6-ethoxypyrazolo[1,5-a]pyridin-4-yl)pyridin-2-yl)-4-((4-(7-(4-(2-(2,6-dioxopiperidin-3-yl)-1-oxoisoindolin-5-yl)piperazin-1-yl)heptanoyl)piperazin-1-yl)methyl)piperidin-4-yl)-3-methylbutanamide] | > 90 | 2 to 10
CCOc1cc(-c2ccc(N3CCC(CN4CCN(C(=O)CCCCN5CCN(c6ccc7c(c6)CN(C6CCC(=O)NC6=O)C7=O)CC5)CC4)(NC(=O)c4cc(F)ccc4F)CC3)nc2)c2c(C#N)cnn2c1 (centres unmarked) [Example 5, N-(1-(5-(3-cyano-6-ethoxypyrazolo[1,5-a]pyridin-4-yl)pyridin-2-yl)-4-((4-(5-(4-(2-(2,6-dioxopiperidin-3-yl)-1-oxoisoindolin-5-yl)piperazin-1-yl)pentanoyl)piperazin-1-yl)methyl)piperidin-4-yl)-2,5-difluorobenzamide] | > 90 | 2 to 10
CCOc1cc(-c2ccc(N3CCC(CN4CCN(C(=O)CN5CCN(c6ccc7c(c6)CN(C6CCC(=O)NC6=O)C7=O)CC5)CC4)(NC(=O)c4cc(F)ccc4F)CC3)nc2)c2c(C#N)cnn2c1 (centres unmarked) [Example 6, N-(1-(5-(3-cyano-6-ethoxypyrazolo[1,5-a]pyridin-4-yl)pyridin-2-yl)-4-((4-(2-(4-(2-(2,6-dioxopiperidin-3-yl)-1-oxoisoindolin-5-yl)piperazin-1-yl)acetyl)piperazin-1-yl)methyl)piperidin-4-yl)-2,5-difluorobenzamide] | > 90 | 2 to 10
CCOc1cc(-c2ccc(N3CCC(CN4CCN(C(=O)CCN5CCC(c6ccc7c(c6)C(=O)N(C6CCC(=O)NC6=O)C7)CC5)CC4)(NC(=O)C4CC4)CC3)nc2)c2c(C#N)cnn2c1 (centres unmarked) [Example 9, N-(1-(5-(3-cyano-6-ethoxypyrazolo[1,5-a]pyridin-4-yl)pyridin-2-yl)-4-((4-(3-(4-(2-(2,6-dioxopiperidin-3-yl)-3-oxoisoindolin-5-yl)piperidin-1-yl)propanoyl)piperazin-1-yl)methyl)piperidin-4-yl)cyclopropanecarboxamide] | > 90 | 2 to 10
CCOc1cc(-c2ccc(N3CCC(CN4CCN(C(=O)CCN5CCN(c6ccc7c(c6)C(=O)N(C6CCC(=O)NC6=O)C7)CC5)CC4)(NC(=O)c4cc(F)ccc4F)CC3)nc2)c2c(C#N)cnn2c1 (centres unmarked) [Example 12, N-(1-(5-(3-cyano-6-ethoxypyrazolo[1,5-a]pyridin-4-yl)pyridin-2-yl)-4-((4-(3-(4-(2-(2,6-dioxopiperidin-3-yl)-3-oxoisoindolin-5-yl)piperazin-1-yl)propanoyl)piperazin-1-yl)methyl)piperidin-4-yl)-2,5-difluorobenzamide] | > 90 | < 2
CCOc1cc(-c2ccc(N3CCC(CN4CCN(C(=O)CCCCN5CCN(c6ccc7c(c6)C(=O)N(C6CCC(=O)NC6=O)C7)CC5)CC4)(NC(=O)c4cc(F)ccc4F)CC3)nc2)c2c(C#N)cnn2c1 (centres unmarked) [Example 13, N-(1-(5-(3-cyano-6-ethoxypyrazolo[1,5-a]pyridin-4-yl)pyridin-2-yl)-4-((4-(5-(4-(2-(2,6-dioxopiperidin-3-yl)-3-oxoisoindolin-5-yl)piperazin-1-yl)pentanoyl)piperazin-1-yl)methyl)piperidin-4-yl)-2,5-difluorobenzamide] | > 90 | < 2
